Results on four compounds are retold here after EP3272330A1, “COMPOSITION AND COSMETIC METHOD FOR REDUCING CELLULITE BLEMISHES” (Italfarmacia S.r.l., priority 2016, dated 2018).

One data set concerns adipose tissue. Put plainly: Clinical study: histological analysis of adipose tissue after subcutaneous injection into areas with localized cellulite. Format: in vivo, patient. The conditions noted are these: surfactant added to ascorbate composition. On the procedure: Step (c) Ten ml of diluents solution were used to reconstitute the mixture of sodium ascorbate and sodium chloride. Cosmetic Treatment: 5 ml of reconstituted solutions were given by subcutaneous injection into local areas with localized cellulite; lipolytic effect, adverse reactions and necrosis were evaluated by histological analysis.
The cosmetic treatment using the composition according to the invention was administered to a group of subjects who were well informed of the procedure; all gave their consent to the use of the results of the study for obtaining a patent grant. […]
A more specific and in-depth observation of the lower limbs was first made to assess, visually, the presence, location and extent of the irregularities of skin surface typical of cellulite. […] By photographic, thermographic and ultrasound instrumental investigations, the condition of each subject have been determined and classified according to a cellulite evaluation scale, ad hoc elaborated for the present study: • grade 0: exempt subjects; • grade 1: local skin rupture, characterized by few presence of irregular skin surface (madras skin or mattres phenomenon) with pit shaped introflexions; • grade 2: generalized skin rupture (skin roughness or orange peel skin). […]

For data set [1] the following is noted: hydrophilic/lipophilic ratio; cited from earlier work.
The test system of a further data set is adipocytes. The conditions noted are these: concentration of 0.06% (3.3 mM); Gao Yan et al. 2009; cited from earlier work.
For data set [2] the following is noted: also printed as 0.0176% to 0.176%; Sakagami H. et al. 1996; cited from earlier work.

Regarding `CCCCCCCCCCCCCCCC(=O)OC[C@H](O)[C@H]1OC(=O)C(O)=C1O` [Ascorbyl Palmitate, ascorbyl palmitate], the “ability of surfactants to determine the improvement of the lipolytic action of ascorbic acid salt” value with adipose tissue is “particularly effective”. Also, the HLB entry in data set [1] is “HLB: 4-5”.
Consider `CCCCCCCC/C=C\CCCCCCCC(=O)OCC(O)CO` (stereo not drawn) [Glyceryl monooleate], for which, in data set [1], the HLB entry is recorded as “HLB: 2-3”.
With `O=C1O[C@H]([C@@H](O)CO)C(O)=C1O` [ascorbic acid], the “apoptotic damage and adipocytes decrease” value in the data set on adipocytes is on record as “ineffective”. In addition, in data set [2], the “concentration range to induce an apoptotic effect” value is 1 to 10 mM.
For Polysorbate 80, the HLB entry in data set [1] was “HLB: 10-12”.
